Experiments:
[1] = system: normal primary NK cells, pool 3 (3 donors) (IL-2 2.5 ng/mL); experiment: drug sensitivity score (DSS) (DSS units); higher = more sensitive; extreme values may be limits of the assay; settings: 72 h
KAI3 (IL-2 2.5 ng/mL) [2] = experiment: as above; settings: 72 h
IMC-1 (IL-2 20 ng/mL) [3] = experiment: as above; settings: 72 h
NK-YS (IL-2 2.5 ng/mL) [4] = experiment: as above; settings: 72 h
NK-92 (IL-2 2.5 ng/mL) [5] = experiment: as above; settings: 72 h
KHYG-1 (IL-2 2.5 ng/mL) [6] = experiment: as above; settings: 72 h
SNK-6 (IL-2 2.5 ng/mL) [7] = experiment: as above; settings: 72 h
[8] = system: normal primary NK cells, pool 1 (3 donors), resting (IL-2 0 ng/mL); experiment: as above; settings: 72 h
NKL (IL-2 2.5 ng/mL) [9] = experiment: as above; settings: 72 h
[10] = system: normal primary NK cells, pool 2 (3 donors) (IL-2 2.5 ng/mL); experiment: as above; settings: 72 h
YT (IL-2 2.5 ng/mL) [11] = experiment: as above; settings: 72 h
DERL-7 (IL-2 2.5 ng/mL) [12] = experiment: as above; settings: 72 h
[13] = system: normal primary NK cells, pool 1 (3 donors) (IL-2 2.5 ng/mL); experiment: as above; settings: 72 h
[14] = system: normal primary NK cells, pool 3 (3 donors) (IL-2 2.5 ng/mL); experiment: percent inhibition of viability; higher = more inhibition; settings: 72 h
KAI3 (IL-2 2.5 ng/mL) [15] = experiment: as above; settings: 72 h
IMC-1 (IL-2 20 ng/mL) [16] = experiment: as above; settings: 72 h
NK-YS (IL-2 2.5 ng/mL) [17] = experiment: as above; settings: 72 h
NK-92 (IL-2 2.5 ng/mL) [18] = experiment: as above; settings: 72 h
KHYG-1 (IL-2 2.5 ng/mL) [19] = experiment: as above; settings: 72 h
SNK-6 (IL-2 2.5 ng/mL) [20] = experiment: as above; settings: 72 h
[21] = system: normal primary NK cells, pool 1 (3 donors), resting (IL-2 0 ng/mL); experiment: as above; settings: 72 h
NKL (IL-2 2.5 ng/mL) [22] = experiment: as above; settings: 72 h
[23] = system: normal primary NK cells, pool 2 (3 donors) (IL-2 2.5 ng/mL); experiment: as above; settings: 72 h
YT (IL-2 2.5 ng/mL) [24] = experiment: as above; settings: 72 h
DERL-7 (IL-2 2.5 ng/mL) [25] = experiment: as above; settings: 72 h
[26] = system: normal primary NK cells, pool 1 (3 donors) (IL-2 2.5 ng/mL); experiment: as above; settings: 72 h
[27] = system: normal NK cells expanded with K562-aAPC; experiment: drug sensitivity score (DSS) (DSS units); higher = more sensitive; extreme values may be limits of the assay; settings: 72 h; IL-2 2.5 ng/mL
Protocol: (§1)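 Drug sensitivity and resistance testing on K562-aAPC-expanded normal NK cells: 5 concentrations (10-fold steps over a 10,000-fold range), 72 h at 37 °C, viability by CellTiter-Glo normalised to DMSO and benzethonium chloride controls; DSS from the fitted curve.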

[28] = system: normal NK cells expanded with K562-aAPC; experiment: percent inhibition of viability; higher = more inhibition; settings: 72 h, IL-2 2.5 ng/mL
Protocol: as §1

COc1cc(Nc2ncc(F)c(Nc3ccc4c(n3)NC(=O)C(C)(C)O4)n2)cc(OC)c1OC [Tamatinib] (max concentration tested 10000 nM)
Settings | drug sensitivity score
DERL-7 (IL-2 2.5 ng/mL) [12] | 5.34
IMC-1 (IL-2 20 ng/mL) [3] | 2.27
KAI3 (IL-2 2.5 ng/mL) [2] | 11.7
KHYG-1 (IL-2 2.5 ng/mL) [6] | 9.92
NK-92 (IL-2 2.5 ng/mL) [5] | 6.83
NK-YS (IL-2 2.5 ng/mL) [4] | 5.03
NKL (IL-2 2.5 ng/mL) [9] | 7.84
SNK-6 (IL-2 2.5 ng/mL) [7] | 4.09
YT (IL-2 2.5 ng/mL) [11] | 5.49
[1] | 3.27
[8] | 0
[10] | 3.61
[13] | 1.62
[27] | 5

percent inhibition of viability [%]
Settings | 1 nM | 10 nM | 100 nM | 1000 nM | 10000 nM
DERL-7 (IL-2 2.5 ng/mL) [25] | -3.21 | -4.44 | -1.63 | 29.5 | 38.5
IMC-1 (IL-2 20 ng/mL) [16] | -4.81 | -0.95 | -11 | -15.5 | 56.1
KAI3 (IL-2 2.5 ng/mL) [15] | 4.14 | 8.73 | 12.3 | 52.5 | 82.4
KHYG-1 (IL-2 2.5 ng/mL) [19] | 1.54 | -0.18 | 6.88 | 36 | 99.6
NK-92 (IL-2 2.5 ng/mL) [18] | -17.2 | -0.02 | -13.7 | 11 | 90.4
NK-YS (IL-2 2.5 ng/mL) [17] | -3.68 | -3.13 | -0.99 | 12.5 | 56.2
NKL (IL-2 2.5 ng/mL) [22] | -1.49 | -0.26 | 2.39 | 34.2 | 68.3
SNK-6 (IL-2 2.5 ng/mL) [20] | 2.85 | 9.06 | -0.26 | -7.25 | 83
YT (IL-2 2.5 ng/mL) [24] | 2.46 | 0.67 | 2.31 | 5.93 | 82.7
[14] | -10.4 | -5.15 | -13.3 | 2.62 | 54.5
[21] | -31.4 | -30.1 | -18.1 | -11 | -3.1
[23] | -10 | -7.66 | -17.3 | 5.93 | 49.9
[26] | -10.3 | -6.76 | 7.45 | 9.38 | 25.4
[28] | 0.12 | 1.7 | 1.14 | 27.4 | 36.2

COc1cccc2c1c(O)c(C(=O)N(C)c1ccc(C(F)(F)F)cc1)c(=O)n2C [Tasquinimod] (max concentration tested 10000 nM)
Settings | drug sensitivity score
DERL-7 (IL-2 2.5 ng/mL) [12] | 0
IMC-1 (IL-2 20 ng/mL) [3] | 1.63
KAI3 (IL-2 2.5 ng/mL) [2] | 0.42
KHYG-1 (IL-2 2.5 ng/mL) [6] | 0.64
NK-92 (IL-2 2.5 ng/mL) [5] | 0.25
NK-YS (IL-2 2.5 ng/mL) [4] | 0.88
NKL (IL-2 2.5 ng/mL) [9] | 0
SNK-6 (IL-2 2.5 ng/mL) [7] | 1.33
YT (IL-2 2.5 ng/mL) [11] | 0.05
[1] | 0
[8] | 0
[10] | 0
[13] | 0
[27] | 0.52

percent inhibition of viability [%]
Settings | 1 nM | 10 nM | 100 nM | 1000 nM | 10000 nM
DERL-7 (IL-2 2.5 ng/mL) [25] | -3.57 | -2.07 | -7.69 | -10.8 | -11.1
IMC-1 (IL-2 20 ng/mL) [16] | -0.7 | -0.26 | 6.03 | 4.89 | 24.9
KAI3 (IL-2 2.5 ng/mL) [15] | -4.26 | 7.35 | 5.88 | 0.64 | 16.9
KHYG-1 (IL-2 2.5 ng/mL) [19] | -2.03 | 0.19 | 16.6 | 3.8 | 15.4
NK-92 (IL-2 2.5 ng/mL) [18] | -9.77 | 4.66 | 9.08 | 0.57 | 14.6
NK-YS (IL-2 2.5 ng/mL) [17] | 0.96 | 4.34 | 12.7 | 5.52 | 18.5
NKL (IL-2 2.5 ng/mL) [22] | -7.64 | -0.44 | 4.18 | -3.6 | 2.35
SNK-6 (IL-2 2.5 ng/mL) [20] | -5.13 | 6.31 | 6.1 | 14.1 | 15.8
YT (IL-2 2.5 ng/mL) [24] | -0.31 | 1.63 | 5.58 | -0.55 | 12.3
[14] | -20.6 | -6.75 | -1.92 | -3.86 | -2.57
[21] | 8.18 | -8.58 | -1.08 | -15.9 | -8.64
[23] | -8.15 | -6.65 | -1.09 | -7.24 | -2.69
[26] | 3.81 | -6.54 | 6.5 | -11.9 | 5.24
[28] | -7.07 | 0.32 | 1.21 | 7.82 | 14.8

Source: the supplement of paper PMC5908809
